Among the data in patent publication US20250163104A1, “MACROCYCLIC IMMUNOMODULATORS” (priority 2021, published 2025) are IC50 values, retold here.

Molecules are shown by their SMILES. Read-outs that look alike come from different tables or passages of the source. Where a SMILES comes first, the peptide text is derived from it. Bridges are numbered along the chain shown (N, C = ends). [ ]: non-standard residue; d: D form. The star is where a group is joined. Bip(4'-NHAc) = CC(=O)Nc1ccc(-c2ccc(C[C@H](N)C(=O)O)cc2)cc1; Phe(3-CF3) = N[C@@H](Cc1cccc(C(F)(F)F)c1)C(=O)O; Ala(morpholin-4-yl) = N[C@@H](CN1CCOCC1)C(=O)O; Phe(4-COOH) = N[C@@H](Cc1ccc(C(=O)O)cc1)C(=O)O; Bip = N[C@@H](Cc1ccc(-c2ccccc2)cc1)C(=O)O; Phe(3-Cl) = N[C@@H](Cc1cccc(Cl)c1)C(=O)O; Phe(3-Me) = Cc1cccc(C[C@H](N)C(=O)O)c1; 4Pal = N[C@@H](Cc1ccncc1)C(=O)O; Cha = N[C@@H](CC1CCCCC1)C(=O)O; dNle = CCCC[C@@H](N)C(=O)O; Carboxymethyl = O=C(O)C*; Nle = CCCC[C@H](N)C(=O)O; Orn = NCCC[C@H](N)C(=O)O; Dab = NCC[C@H](N)C(=O)O; Dap = NC[C@H](N)C(=O)O; X9 = c1cn(CCCN*)cn1; Propargyl = C#CC*

A word on the IC50: it is the concentration that gives 50% inhibition.

The assay deals with T1, human PD-1 / PD-L1-Ig binding on Jurkat cell line over-expressing human PD-1 (Jurkat-PD-1) (Homo sapiens, UniProt Q15116).
T1 construct: expressed in transfected cells; host or cells: Jurkat
The experiment in a line: Jurkat-PD-1 Cell Binding High-Content Screening Assay (CBA). As to conditions: PE-labeled PD-L1-Ig 20 nM final. The assay is classed as cell-based. The method, boiled down: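 PE-PD-L1-Ig 20 nM final; cells in DMEM/10% FCS; cpd pre-incubation 2 h, 37° C; ligand 1 h; PFA fix + Hoechst 33342; high-content imaging read-out.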

Where [1] appears, read: Jurkat-PD-1 cells, read-out: Jurkat HPD1_PDL1 IC50.
Where [2] appears, read: Jurkat HPD1_PDL1 IC50, Jurkat-PD-1 cells.

T1 sequence (Q15116 25-288): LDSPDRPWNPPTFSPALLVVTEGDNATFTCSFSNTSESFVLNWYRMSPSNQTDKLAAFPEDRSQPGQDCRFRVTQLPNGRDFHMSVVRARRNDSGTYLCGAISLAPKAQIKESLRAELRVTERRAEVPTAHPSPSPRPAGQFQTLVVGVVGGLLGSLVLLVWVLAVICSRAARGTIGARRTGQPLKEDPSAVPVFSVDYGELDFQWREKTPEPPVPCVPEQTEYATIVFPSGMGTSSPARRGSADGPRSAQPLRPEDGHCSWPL

As to `CC(C)C[C@H]1NC(=O)[C@H](CCCN)NC(=O)[C@H](C(C)C)NC(=O)[C@H](Cc2ccc(-c3ccccc3)cc2)NC(=O)[C@H](C(C)C)NC(=O)[C@H](Cc2c[nH]c3ccccc23)NC(=O)[C@H](CC(=O)O)NC(=O)[C@H](Cc2ccc(OCC(=O)O)cc2)NC(=O)[C@H](CN)NC(=O)CSC[C@@H](C(=O)N[C@@H](C)C(N)=O)NC(=O)[C@H]([C@@H](C)O)NC(=O)[C@H](C(C)C)NC(=O)[C@H](CC2CCCCC2)NC(=O)[C@H](CC(N)=O)NC1=O` [Compound 1519] ({CH2CO}-[Dap]Y(Carboxymethyl)DWV[Bip]V[Orn][dL]N[Cha]VTCA-NH2; thioether N-14), the IC50 under setting [1] is 7.7 nM.

For `CC(C)C[C@H]1NC(=O)[C@H](CCCN)NC(=O)[C@H](CCC(=O)O)NC(=O)[C@H](Cc2ccc(-c3ccccc3)cc2)NC(=O)[C@H](C(C)C)NC(=O)[C@H](Cc2c[nH]c3ccccc23)NC(=O)[C@H](CC(=O)O)NC(=O)[C@H](Cc2ccc(C#N)cc2)NC(=O)[C@H](Cc2ccncc2)NC(=O)CSC[C@@H](C(=O)N[C@@H](C)C(N)=O)NC(=O)[C@H]([C@@H](C)O)NC(=O)[C@H](C(C)C)NC(=O)[C@H](CC2CCCCC2)NC(=O)[C@H](CCN)NC1=O` [Compound 2189], the IC50 under setting [1] stood at 32.2 nM.

Consider `C#CCOc1ccc(C[C@@H]2NC(=O)[C@H](CN)NC(=O)CSC[C@@H](C(=O)N[C@@H](CCN)C(N)=O)NC(=O)[C@H](CCC(=O)O)NC(=O)[C@H](C(C)C)NC(=O)[C@H](CC3CCCCC3)NC(=O)[C@H](CCN)NC(=O)[C@@H](CC(C)C)NC(=O)[C@H](CCCN)NC(=O)[C@H](Cc3ccc(OCC(=O)O)cc3)NC(=O)[C@H](Cc3ccc(-c4ccccc4)cc3)NC(=O)[C@H](Cc3ccc(OCC(=O)O)cc3)NC(=O)[C@H](Cc3cccc(C)c3)NC(=O)[C@H](CC(=O)O)NC2=O)cc1` [Compound 1819] ({CH2CO}-[Dap]Y(Propargyl)D[Phe(3-Me)]Y(Carboxymethyl)[Bip]Y(Carboxymethyl)[Orn][dL][Dab][Cha]VEC[Dab]-NH2; thioether N-14), for which the IC50 under setting [1] was found to be 3.7 nM.

Consider `CC(=O)Nc1ccc(-c2ccc(C[C@@H]3NC(=O)[C@H](Cc4cccc(C(F)(F)F)c4)NC(=O)[C@H](CC(=O)O)NC(=O)[C@H](Cc4ccc(C(=O)O)cc4)NC(=O)[C@H](CN4CCOCC4)NC(=O)CSC[C@@H](C(=O)N[C@@H](CCN)C(N)=O)NC(=O)[C@H](CCC(=O)O)NC(=O)[C@H](C(C)C)NC(=O)[C@H](CC4CCCCC4)NC(=O)[C@H](CCN)NC(=O)[C@@H](CC(C)C)NC(=O)[C@H](CCCN)NC(=O)[C@H](Cc4ccc(C(=O)O)cc4)NC(=O)[C@H](Cc4ccc(-c5ccccc5)cc4)NC3=O)cc2)cc1` [Example 2736] ({CH2CO}-[Ala(morpholin-4-yl)][Phe(4-COOH)]D[Phe(3-CF3)][Bip(4'-NHAc)][Bip][Phe(4-COOH)][Orn][dL][Dab][Cha]VEC[Dab]-NH2; thioether N-14), for which, under setting [1], the half-inhibitory concentration (IC50) was found to be 1.1 nM.

`CCCC[C@H]1NC(=O)[C@H](CCCN)NC(=O)[C@H](C(C)C)NC(=O)[C@H](Cc2ccc(-c3ccccc3)cc2)NC(=O)[C@H](C(C)C)NC(=O)[C@H](Cc2c[nH]c3ccccc23)NC(=O)[C@H](CC(=O)O)NC(=O)[C@H](Cc2ccc(OCC(=O)O)cc2)NC(=O)[C@H](Cc2ccncc2)NC(=O)CSC[C@@H](C(=O)N[C@@H](C)C(N)=O)NC(=O)[C@H]([C@@H](C)O)NC(=O)[C@H](C(C)C)NC(=O)[C@H](CC2CCCCC2)NC(=O)[C@H](CCN)NC1=O` [Compound 1693]: the IC50 under setting [1] stood at 9.1 nM.

As to `CC(C)C[C@H]1NC(=O)[C@H](CCCN)NC(=O)[C@H](CN)NC(=O)[C@H](Cc2ccc(-c3ccccc3)cc2)NC(=O)[C@H](C(C)C)NC(=O)[C@H](Cc2c[nH]c3ccccc23)NC(=O)[C@H](CC(=O)O)NC(=O)[C@H](Cc2ccncc2)NC(=O)[C@H](CN)NC(=O)CSC[C@@H](C(=O)N[C@@H](C)C(N)=O)NC(=O)[C@H]([C@@H](C)O)NC(=O)[C@H](C(C)C)NC(=O)[C@H](CC2CCCCC2)NC(=O)[C@H](CCN)NC1=O` [Compound 1388], the IC50 under setting [1] came out at 26 nM.

Turning to `CC(C)C[C@H]1NC(=O)[C@H](CCCN)NC(=O)[C@H](C(C)C)NC(=O)[C@H](Cc2ccc(-c3ccccc3)cc2)NC(=O)[C@H](C(C)C)NC(=O)[C@H](Cc2c[nH]c3ccccc23)NC(=O)[C@H](CC(=O)O)NC(=O)[C@H](Cc2ccc(OCC(=O)O)cc2)NC(=O)[C@H](Cc2ccncc2)NC(=O)CSC[C@@H](C(=O)N[C@@H](C)C(N)=O)NC(=O)[C@H]([C@@H](C)O)NC(=O)[C@H](C(C)C)NC(=O)[C@H](CC2CCCCC2)NC(=O)[C@H](Cc2cnc[nH]2)NC1=O` [Compound 1607], under setting [1], the IC50 was determined as 14.6 nM.

For `CC(C)C[C@@H]1NC(=O)[C@H](Cc2c[nH]c3ccccc23)NC(=O)[C@H](CC(=O)O)NC(=O)[C@H](Cc2ccncc2)NC(=O)[C@H](CN)NC(=O)CSC[C@@H](C(=O)NCC(N)=O)NC(=O)[C@H](CO)NC(=O)[C@H](C(C)C)NC(=O)[C@H](CC2CCCCC2)NC(=O)[C@H](CC(N)=O)NC(=O)[C@@H](CC(C)C)NC(=O)[C@H](CCCN)NC(=O)[C@H](C(C)C)NC(=O)[C@H](Cc2ccc(-c3ccccc3)cc2)NC1=O` [Compound 1337] ({CH2CO}-[Dap][4Pal]DWL[Bip]V[Orn][dL]N[Cha]VSCG-NH2; thioether N-14), the IC50 under setting [1] turned out to be 27 nM.

For the compound `Cc1cccc(C[C@@H]2NC(=O)[C@H](CC(=O)O)NC(=O)[C@H](Cc3ccc(C(=O)O)cc3)NC(=O)[C@H](CN)NC(=O)CSC[C@@H](C(=O)N[C@@H](C)C(=O)NCCCn3ccnc3)NC(=O)[C@H]([C@@H](C)O)NC(=O)[C@H](C(C)C)NC(=O)[C@H](CC(C)C)NC(=O)[C@H](CCN)NC(=O)[C@@H](CC(C)C)NC(=O)[C@H](CCCN)NC(=O)[C@H](C(C)C)NC(=O)[C@H](Cc3ccc(-c4ccccc4)cc3)NC(=O)[C@H](C(C)C)NC2=O)c1` [Compound 2005] ({CH2CO}-[Dap][Phe(4-COOH)]D[Phe(3-Me)]V[Bip]V[Orn][dL][Dab]LVTCA-X9; thioether N-14), the IC50 under setting [1] worked out at 5.1 nM.

Regarding `C#CCOc1ccc(C[C@@H]2NC(=O)[C@H](C(C)C)NC(=O)[C@H](CC3CCCCC3)NC(=O)[C@H](CCN)NC(=O)[C@@H](CC(C)C)NC(=O)[C@H](CCCN)NC(=O)[C@H](Cc3ccc(OCC(=O)O)cc3)NC(=O)[C@H](Cc3ccc(-c4ccccc4)cc3)NC(=O)[C@H](Cc3ccc(OCC(=O)O)cc3)NC(=O)[C@H](Cc3cccc(C)c3)NC(=O)[C@H](CC(=O)O)NC(=O)[C@H](Cc3ccc(OCC(=O)O)cc3)NC(=O)[C@H](CCN)NC(=O)CSC[C@@H](C(=O)N[C@@H](CCN)C(N)=O)NC2=O)cc1` [Compound 1814] ({CH2CO}-[Dab]Y(Carboxymethyl)D[Phe(3-Me)]Y(Carboxymethyl)[Bip]Y(Carboxymethyl)[Orn][dL][Dab][Cha]VY(Propargyl)C[Dab]-NH2; thioether N-14), the IC50 under setting [1] is 23 nM.

For the compound `CCCC[C@H]1NC(=O)[C@H](CCCN)NC(=O)[C@H]([C@@H](C)CC)NC(=O)[C@H](Cc2ccc(-c3ccccc3)cc2)NC(=O)[C@H](C(C)C)NC(=O)[C@H](Cc2c[nH]c3ccccc23)NC(=O)[C@H](CC(=O)O)NC(=O)[C@H](Cc2ccncc2)NC(=O)[C@H](CN)NC(=O)CSC[C@@H](C(=O)N[C@@H](C)C(N)=O)NC(=O)[C@H]([C@@H](C)O)NC(=O)[C@H](C(C)C)NC(=O)[C@H](CC2CCCCC2)NC(=O)[C@H](CCN)NC1=O` [Compound 1711] ({CH2CO}-[Dap][4Pal]DWV[Bip]I[Orn][dNle][Dab][Cha]VTCA-NH2; thioether N-14), the 50% inhibitory concentration (IC50) under setting [1] stood at 12.8 nM.

Regarding `CCCC[C@@H]1NC(=O)[C@H](CC(N)=O)NC(=O)[C@@H](CC(C)C)NC(=O)[C@H](CN)NC(=O)[C@H](C(C)C)NC(=O)[C@H](Cc2ccc(-c3ccccc3)cc2)NC(=O)[C@H](CC(C)C)NC(=O)[C@H](Cc2c[nH]c3ccccc23)NC(=O)[C@H](CC(=O)O)NC(=O)[C@H](Cc2ccc(O)cc2)NC(=O)[C@H](Cc2ccccc2)NC(=O)CSC[C@@H](C(=O)NCC(N)=O)NC(=O)[C@H](CO)NC(=O)[C@H](C(C)C)NC1=O` [Compound 1397] ({CH2CO}-FYDWL[Bip]V[Dap][dL]N[Nle]VSCG-NH2; thioether N-14), under setting [1], the IC50 came out at 55.3 nM.

For `CC(C)C[C@@H]1NC(=O)[C@H](Cc2c[nH]c3ccccc23)NC(=O)[C@H](CC(=O)O)NC(=O)[C@H](Cc2ccc(O)cc2)NC(=O)[C@H](Cc2ccccc2)NC(=O)CSC[C@@H](C(=O)NCC(N)=O)NC(=O)[C@H]([C@@H](C)O)NC(=O)[C@H](C(C)C)NC(=O)[C@H](CC(C)C)NC(=O)[C@H](CC(N)=O)NC(=O)[C@@H](C)NC(=O)[C@H](CN)NC(=O)[C@H](C(C)C)NC(=O)[C@H](Cc2ccc(-c3ccccc3)cc2)NC1=O` [Compound 1074] ({CH2CO}-FYDWL[Bip]V[Dap][dA]NLVTCG-NH2; thioether N-14), under setting [2], the half-inhibitory concentration (IC50) was 124 nM.

With `CC(C)C[C@H]1NC(=O)[C@H](CCCN)NC(=O)[C@H](CCC(=O)O)NC(=O)[C@H](Cc2ccc(-c3ccccc3)cc2)NC(=O)[C@H](C(C)C)NC(=O)[C@H](Cc2cccc(Cl)c2)NC(=O)[C@H](CC(=O)O)NC(=O)[C@H](Cc2ccc(OCC(=O)O)cc2)NC(=O)[C@H](Cc2ccccc2)NC(=O)CSC[C@@H](C(=O)N[C@@H](C)C(N)=O)NC(=O)[C@H]([C@@H](C)O)NC(=O)[C@H](C(C)C)NC(=O)[C@H](CC2CCCCC2)NC(=O)[C@H](CCN)NC1=O` [Compound 1488] ({CH2CO}-FY(Carboxymethyl)D[Phe(3-Cl)]V[Bip]E[Orn][dL][Dab][Cha]VTCA-NH2; thioether N-14), the IC50 under setting [1] turned out to be 10.6 nM.

Take `CC[C@H](C)[C@@H]1NC(=O)[C@H](Cc2ccc(-c3ccccc3)cc2)NC(=O)[C@H](C(C)C)NC(=O)[C@H](Cc2cccc(Cl)c2)NC(=O)[C@H](CC(=O)O)NC(=O)[C@H](Cc2ccc(OCC(=O)O)cc2)NC(=O)[C@H](Cc2ccc(OCC(=O)O)cc2)NC(=O)CSC[C@@H](C(=O)N[C@@H](C)C(N)=O)NC(=O)[C@H]([C@@H](C)O)NC(=O)[C@H](C(C)C)NC(=O)[C@H](CC2CCCCC2)NC(=O)[C@H](CCN)NC(=O)[C@@H](CC(C)C)NC(=O)[C@H](CCCN)NC1=O` [Compound 1568]: under setting [2], the IC50 amounted to 24.5 nM.
